pIC50: −log10 of the molar value. One block for each compound: values may come before it.
Assays:
Assay type in all cases: cell-based
ER [1] = molecular target: T1, ER (Homo sapiens, UniProt P03372); assay: Western blot analysis (compounds B1-B126); conditions: ER degradation, read-out: Traditional Western Degradation potency (DC50)
T1 construct: endogenous in cells; probably T47D or MCF-7
T1 sequence (P03372 1-595): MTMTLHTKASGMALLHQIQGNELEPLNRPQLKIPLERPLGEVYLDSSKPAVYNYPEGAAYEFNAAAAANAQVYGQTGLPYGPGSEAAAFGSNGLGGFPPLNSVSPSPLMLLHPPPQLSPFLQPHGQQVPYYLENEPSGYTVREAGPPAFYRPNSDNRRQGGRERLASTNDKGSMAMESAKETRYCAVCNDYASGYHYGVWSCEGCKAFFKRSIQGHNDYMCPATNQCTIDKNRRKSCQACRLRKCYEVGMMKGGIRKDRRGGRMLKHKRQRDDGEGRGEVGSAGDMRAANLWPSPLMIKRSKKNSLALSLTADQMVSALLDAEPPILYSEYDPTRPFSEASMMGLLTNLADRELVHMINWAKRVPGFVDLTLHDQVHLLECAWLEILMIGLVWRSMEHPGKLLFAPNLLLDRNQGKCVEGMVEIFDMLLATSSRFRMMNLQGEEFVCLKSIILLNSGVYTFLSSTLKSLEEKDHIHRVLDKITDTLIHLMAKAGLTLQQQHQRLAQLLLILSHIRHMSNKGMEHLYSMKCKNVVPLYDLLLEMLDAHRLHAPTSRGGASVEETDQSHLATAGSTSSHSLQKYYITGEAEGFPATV
Protocol: Western Blot Analysis. The cells that are treated with the compounds are lysed in Radioimmunoprecipitation Assay Protein Lysis and Extraction Buffer (e.g., 25 mmol/L Tris.HCl, pH 7.6, 150 mmol/L NaCl, 1% Nonidet P-40, 1% sodium deoxycholate, and 0.1% sodium dodecyl sulfate) containing proteinase inhibitor cocktail. Equal amounts of total protein are electrophoresed through 10% SDS-polyacrylamide gels after determination of protein concentration by BCA assay. The separated protein bands are transferred onto PVDF membranes and blotted against different antibodies. The blots are scanned, and the band intensities are quantified (e.g., by using GelQuant.NET software provided by biochemlabsolutions.com). The relative mean intensity of target proteins is expressed after normalization to the intensity of glyceraldehyde-3-phosphate dehydrogenase bands.
Western Blot Analysis. Western blot analysis was performed essentially as described previously. The cells treated with indicated compounds were lysed in Radioimmunoprecipitation Assay Protein Lysis and Extraction Buffer (25 mmol/L Tris.HCl, pH 7.6, 150 mmol/L NaCl, 1% Nonidet P-40, 1% sodium deoxycholate, and 0.1% sodium dodecyl sulfate) containing proteinase inhibitor cocktail (Roche Diagnostics, Mannheim, Germany). Equal amounts of total protein were electrophoresed through 10% SDS-polyacrylamide gels after determination of protein concentration by BCA assay (Fisher Scientific, Pittsburgh, PA). The separated protein bands were transferred onto PVDF membranes (GE Healthcare Life Sciences, Marlborough, MA) and blotted against different antibodies, as indicated. The blots were scanned, and the band intensities were quantified using GelQuant.NET software provided by biochemlabsolutions.com. The relative mean intensity of target proteins was expressed after normalization to the intensity of glyceraldehyde-3-phosphate dehydrogenase bands.

ER [2] = molecular target: T1, ER; assay: In-cell Western (ICW) ER degradation assay in T47D cells; conditions: T47D cells, 16 hrs
Protocol: (§1) ERa degradative activity of compounds can be assessed in MCF-7 and T47D Cells. MCF-7 and T47D cell are seeded and are subsequently treated with the compounds at certain concentrations (e.g., 0.02 to 300 nM). DMSO can be used as vehicle control. Cells are fixed and are blocked with Intercept (PBS) Blocking Buffer (e.g., Li—COR, Odyssey Blocking Buffer), and are stained with ER (e.g., 1:500, Cell signaling) primary antibody for overnight at cold room. Secondary Antibody (e.g., IRDye 800CW Goat anti-Rabbit IgG) and CellTag 700 Stain are added in Intercept (PBS) Blocking Buffer. Finally, cell plate is placed in incubator to dry. Image and signal are captured on Odyssey® DLx Imaging System.
(§2) In-cell Western (ICW) assays in MCF-7 and T47D cell lines.
(§3) Procedures for ICW assays
(§4) In vitro Assay: MCF-7 and T47D ICW assay
(§5) Day 3: After 16 hrs of compounds treatment, cells were fixed by 4% PFA and permeabilized with elution buffer (0.1% Triton X-100 in 1% PBS Solution). Subsequently, cells were blocked with Intercept (PBS) Blocking Buffer (Li—COR, Odyssey Blocking Buffer), and were stained with ER (1:500, Cell signaling) primary antibody for overnight at cold room.
(§6) Day 4: Remove the buffer, add IRDye 800CW Goat anti-Rabbit IgG Secondary Antibody (1:2000) and CellTag 700 Stain (1:500) in Intercept (PBS) Blocking Buffer. Finally, cell plate is placed in incubator to dry. Image and signal were captured on Odyssey® DLx Imaging System.

ER [3] = molecular target: T1, ER; assay: In-cell Western (ICW) ER degradation assay in MCF-7 cells; conditions: 16 hrs
Protocol: as §1, §2, §3, §4, §5, §6

ER [4] = molecular target: T1, ER; assay: In-cell western blot analysis, relative ER percentage (compounds B1-B126); conditions: ER degradation, 16 hours, read-out: ICW DC50
Procedure, shortened: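 Cells seeded at 40,000 or 10,000 per well overnight were treated with compound (final 0.5% DMSO) for 16 hours, then fixed with formaldehyde. ER was detected with primary antibodies and anti-rabbit-680/anti-mouse-800 secondaries on a CLX reader. Signal is expressed relative to untreated and DMSO wells set as 100%.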

[5] = Cell growth assay, WST-8 (compounds B1-B126); conditions: 96 h; T47D cell line, WST-8, 4 days; read-out: Cell growth inhibition in T47D cell line IC50
Procedure, shortened: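 Cells seeded at 1500/well overnight, treated one day later with compound doses for 4 days, then 10% WST-8 added for 2.5 h at 37° C in CO2. Absorbance at 450 nm, expressed relative to vehicle control over three independent repeats.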

DC50 (ER [1]): 10 to 100 nM
SMILES: C[C@@H]1Cc2c(ccc3[nH]ncc23)[C@@H](c2c(F)cc(N3CCC4(CCN(CC(=O)N5Cc6cc7c(cc6C5)C(=O)N(C5CCC(=O)NC5=O)C7=O)CC4)CC3)cc2F)N1CC(F)F (stereo partly drawn) [Compound B5, 6-(2-(9-(4-((6S,8R)-7-(2,2-difluoroethyl)-8-methyl-6,7,8,9-tetrahydro-3H-pyrazolo[4,3-f]isoquinolin-6-yl)-3,5-difluorophenyl)-3,9-diazaspiro[5.5]undecan-3-yl)acetyl)-2-(2,6-dioxopiperidin-3-yl)-6,7-dihydropyrrolo[3,4-f]isoindole-1,3(2H,5H)-dione]

DC50 (ER [1]): 10 to 100 nM
SMILES: C[C@@H]1Cc2c(ccc3[nH]ncc23)[C@@H](c2c(F)cc(N3CCC(CN4CCN5c6cc7c(cc6N(C)C[C@@H]5C4)C(=O)N(C4CCC(=O)NC4=O)C7)CC3)cc2F)N1CC(F)F (stereo partly drawn) [Compound B18, 3-((S)-3-((1-(4-((6S,8R)-7-(2,2-difluoroethyl)-8-methyl-6,7,8,9-tetrahydro-3H-pyrazolo[4,3-f]isoquinolin-6-yl)-3,5-difluorophenyl)piperidin-4-yl)methyl)-6-methyl-8-oxo-2,3,4,4a,5,6,8,10-octahydropyrazino[1,2-a]pyrrolo[3,4-g]quinoxalin-9(1H)-yl)piperidine-2,6-dione]

DC50 (ER [2]): < 1 nM
Dmax (ER [2]; T47D, read-out: ER T47D ICW Dmax (%)): > 75%
Dmax (ER [3]; MCF7, MCF-7 cells, read-out: ER MCF7 ICW Dmax (%)): > 75%
DC50 (ER [3]; MCF-7 cells, read-out: ER MCF7 ICW DC50): < 1 nM
SMILES: C[C@@H]1Cc2c(ccc3[nH]ncc23)[C@@H](c2ccc(N3CCC4(CC3)CC(CN3CCN5c6cc7c(cc6OC[C@@H]5C3)C(=O)N([C@@H]3CCC(=O)NC3=O)C7)C4)cn2)N1CC1(F)CC1 [Compound A12, (R)-3-((S)-3-((7-(6-((6S,8R)-7-((1-fluorocyclopropyl)methyl)-8-methyl-6,7,8,9-tetrahydro-3H-pyrazolo[4,3-f]isoquinolin-6-yl)pyridin-3-yl)-7-azaspiro[3.5]nonan-2-yl)methyl)-8-oxo-1,2,3,4,4a,5,8,10-octahydro-9H-pyrazino[1′,2′: 4,5][1,4]oxazino[2,3-f]isoindol-9-yl)piperidine-2,6-dione]

DC50 (ER [4]): 10 to 100 nM
SMILES: C[C@@H]1Cc2c(ccc3[nH]ncc23)[C@@H](c2ccc(N3CCC(CN4CCN5c6ccc(C(=O)N[C@H]7CCC(=O)NC7=O)nc6OC[C@H]5C4)CC3)cn2)N1CC(F)(F)F [Compound B90, (R)-N-((S)-2,6-dioxopiperidin-3-yl)-3-((1-(6-((6S,8R)-8-methyl-7-(2,2,2-trifluoroethyl)-6,7,8,9-tetrahydro-3H-pyrazolo[4,3-f]isoquinolin-6-yl)pyridin-3-yl)piperidin-4-yl)methyl)-1,2,3,4,4a,5-hexahydropyrazino[1,2-d]pyrido[2,3-b][1,4]oxazine-8-carboxamide]
pIC50 [5]: 8.00 to 9.00

Continued, compound first:

SMILES: C[C@@H]1Cc2c(ccc3[nH]ncc23)[C@@H](c2c(F)cc(N3CCC(CN4CCN(c5cc6c(cc5F)C(=O)N(C5CCC(=O)NC5=O)C6=O)CC4)CC3)cc2F)N1CC(F)F (stereo partly drawn) [Compound B66, 5-(4-((1-(4-((6S,8R)-7-(2,2-difluoroethyl)-8-methyl-6,7,8,9-tetrahydro-3H-pyrazolo[4,3-f]isoquinolin-6-yl)-3,5-difluorophenyl)piperidin-4-yl)mcthyl)pipcrazin-1-yl)-2-(2,6-dioxopiperidin-3-yl)-6-fluoroisoindoline-1,3-dione]
DC50 (ER [1]): 10 to 100 nM

SMILES: C[C@@H]1Cc2c(ccc3[nH]ncc23)[C@@H](c2c(F)cc(N3CCC(C(=O)N4CCC(N5Cc6cc7c(cc6C5)C(=O)N(C5CCC(=O)NC5=O)C7=O)CC4)CC3)cc2F)N1CC(F)F (stereo partly drawn) [Compound B6, 6-(1-(1-(4-((6S,8R)-7-(2,2-difluoroethyl)-8-methyl-6,7,8,9-tetrahydro-3H-pyrazolo[4,3-f]isoquinolin-6-yl)-3,5-difluorophenyl)piperidine-4-carbonyl)piperidin-4-yl)-2-(2,6-dioxopiperidin-3-yl)-6,7-dihydropyrrolo[3,4-f]isoindole-1,3(2H,5H)-dione]
DC50 (ER [1]): < 10 nM
